“And” between values parts separate entries of the source, which are not always exact repeats. Equal entries are not always repeated.
Experiments:
[1] = Vitamin C renal leak study in diabetic cohort, nondiabetic controls and healthy subgroup (matched fasting plasma and 1 h urine); assay type: in vivo, human; settings: for Plasma Vitamin C Concentration (mean): fasting
Experimental: Vitamin C in plasma and urine was measured using coulometric electrochemical detection with high performance liquid chromatography.
Study design: This was a non-randomized cross-sectional cohort outpatient study aimed at investigating the prevalence and clinical characteristics of vitamin C renal leak in a cohort of individuals with diabetes and non-diabetic controls. The protocol was approved by the Institutional Review Boards of NIDDK, NIH.
Participants and Recruitment: The study included a cohort of diabetic and non-diabetic individuals aged 18-65, without known acute or chronic medical conditions other than complications of diabetes mellitus or metabolic syndrome. Exclusion criteria included presence of an acute or chronic illness, alcohol abuse or tobacco use and pregnancy.
Subjects were also instructed to avoid food or drinks (other than water and medications) after midnight, prior to study sampling day. On morning of study sampling, subjects were admitted to the NIH CRC's metabolic unit as outpatients. They were instructed to empty their bladder. […] Subjects were subsequently provided with a meal and discharged home.
Study Groups and Comparators for Analyses: Three groups of participants who met the inclusion and exclusion criteria were used for data analyses: diabetic cohort, nondiabetic control group and healthy subgroup. The diabetic cohort was comprised of men and women with type 1 or type 2 diabetes. The nondiabetic control group was made up of individuals without diabetes and were not taking any chronic medications. To investigate unknown factors associated with renal leak, related and unrelated to diabetes, the study exclusion criteria was non-restrictive to recruit a broad sampling of the population. Thus, the nondiabetic control group included asymptomatic subjects with abnormal laboratory values which not determined to be clinically significant during the screening evaluation. However, inclusion of individuals with abnormal laboratory values in the non-diabetic control group could confound study findings. To address this concern, a post-hoc healthy subgroup of the nondiabetic control group without abnormal laboratory findings was identified. Primary comparative analysis was between the diabetic group vs nondiabetic control group. The diabetic group was secondarily compared with the healthy subgroup to assess for discordant findings.
This binary criterion is a qualitative measure indicating the presence or absence of a renal leak in a subject. The prevalence of renal leak was calculated as the proportion of leakers in each population cohort.
FeVC is a quantitative measure that describes the degree and magnitude of a renal leak. The formula for calculating FeVC is shown below: […]
Sample collection and vitamin C assay: Urine and plasma vitamin C were analyzed by HPLC with coulometric electrochemical detection. Other blood and urine chemistry measurements were performed, using standard laboratory methods, by the department of laboratory medicine Clinical Laboratory Improvement Amendments (CLIA) identification number: 21D0665373, Clinical Research Center, National Institutes of Health.

[2] = Plasma and urine vitamin C in gulo-/- mice given vitamin C in drinking water; assay type: in vivo, mouse; settings: gulo-/- mice of both sexes, vitamin C 0 to 5000 mg/L in drinking water
Experimental: Values represent means+/−SDs. All mice were maintained at each dose for one week before blood and urine sampling.
Animal experiments were approved by the Animal Care and Use Committee NIDDK, NIH, and were conducted in accordance with NIH guidelines. Mice were 10-14-week-old males and females with free access to food and water and were maintained on a regular chow diet (NIH-07) without detectable ascorbate (detection limit 10 nM). Mice type were gulo^−/− and SVCT1^−/−. […] To maintain the mice, vitamin C was provided via drinking water, which was changed daily.
Plasma and RBCs were from mouse whole blood as described. Urine was collected at the same time as the blood by gentle abdominal pressure.
Blood and urine samples were collected on ice and processed promptly. All samples were stored at −80 C and assayed together by HPLC as previously described.

[3] = Vitamin C renal leak study in men with Fabry disease and healthy male controls (matched fasting plasma and 1 h urine); assay type: in vivo, human; settings: for median fractional excretion of vitamin C (FeVC): all subjects
Excerpt: Study design: This was a non-randomized cross-sectional cohort study aimed at investigating the prevalence and clinical characteristics of vitamin C renal leak in men with Fabry disease and healthy male controls. The protocols were approved by the Institutional Review Boards of NINDS and NIDDK, NIH.
Participants: Men with Fabry disease who were actively participating in NIH protocols evaluating the open label use of enzyme replacement therapy (ERT) in Fabry disease (95-N-0121, 00-N-0185 and 02-N-0220), ClinicalTrials.gov Identifiers: NCT00001491 and NCT00068107) were recruited. The male predominance in Fabry disease is based on the X-linked inheritance pattern. Accordingly, healthy men aged 18-58 were recruited on a rolling basis as controls for the Fabry cohort, under NIH protocol 04-DK-0021 (arm 3). Exclusion criteria included acute or chronic illness, alcohol abuse or tobacco use.
Matched urine and plasma vitamin C measurements: Following an overnight fast, on the morning of study, subjects were instructed to empty their bladder. […] Following the initial spot urine collection, subjects were hospitalized for another 24 hours. They consumed a hospital diet free of supplements or foods items with no or low vitamin C content. On morning of day 2, collection of all voided urine for 24 hours (termed 24 h urine) was obtained and subjects were discharged home.
Primary endpoint was the prevalence of vitamin C renal leak in the Fabry's cohort compared with healthy controls. Renal leak status (leak vs no leak) was determined using criteria described in depletion-repletion studies above. […] To address this limitation, renal leak was also expressed as fractional excretion of vitamin C (FeVC) defined as follows: […]
Following an overnight fast, on the morning of study, subjects were instructed to empty their bladder. […] Subjects could watch TV, read, take naps, or rest in any other way they choose. […]

[4] = Vitamin C depletion-repletion pharmacokinetic study: renal threshold and minimal elimination threshold (PBPK and PCF modelling); assay type: in vivo, human; settings: for vitamin C renal threshold, Population Curve Fitting (PCF): population estimate
Experimental: Renal threshold was estimated using physiology-based pharmacokinetics modeling. […] Mice knockout models were used for proof-of-concept studies. Vitamin C was measured using coulometric electrochemical detection with high performance liquid chromatography.
Pharmacokinetics components of depletion-repletion study design have been described previously (see supplementary methods). The protocol was approved by the Institutional Review Board, National Institutes of Diabetes and Digestive and Kidney diseases (NIDDK), National Institutes of Health (NIH).
Participants, Interventions: Healthy men and women aged 18 to 35 years without any acute or chronic medical conditions. Details on eligibility and study interventions are described in supplementary methods.
Full details regarding studying outcomes and analyses are provided in supplementary methods. […] Each subject had 5-7 oral and intravenous pharmacokinetic studies over a 13-fold or greater dose range. Data from the NIH depletion study in men and women were used to estimate the vitamin C renal threshold by two different methods: physiology-based pharmacokinetics modeling (PBPK), and population curve fitting with empirical functions (PCF). […] Based on data from healthy men, this model facilitated description of pharmacokinetics-time profiles of vitamin C in plasma, urine, and tissues simultaneously. Goodness of fit analyses support the use of this model to data from healthy women. For population curve fitting (PCF), plasma and urine values were analyzed using nonlinear mixed-effect modeling. PCF fits empirical functions to data from all subjects of each sex to estimate the renal threshold for that population of men and women. Using PBPK analyses, minimal elimination threshold (MET) was defined as that plasma concentration 2 standard deviations below the mean renal threshold for men and for women based on guidelines for estimating dietary reference intakes. […] (see supplementary methods).
Because urine samples collected at variable intervals were not synchronized with plasma samples, the time at which vitamin C first appears in the urine or when vitamin C urinary elimination became zero could not be determined from raw data alone. […] Using the data from the NIH depletion repletion study, vitamin C renal threshold was estimated by two different methods: Physiology-Based Pharmacokinetics model (PBPK) and population curve fitting (PCF).
Goodness of fit analysis support the use of the pharmacokinetics model to data collected from 15 normal women. […] When the amount of filtered vitamin C exceeds renal tubular reabsorptive capacity, vitamin C appears in the urine. The point at which renal threshold is reached (when filtration and reabsorption are in equilibrium) can be represented as
The Cplasma that fulfill the above equation is the plasma concentration threshold (renal threshold). At which time, the rate of vitamin C dispense into the tubule equals zero. The equation 2 can be rearranged as
Different non-parametric empirical functions were explored to best describe the combined urine data versus plasma vitamin C value of all subjects. After the structure function (model) was selected using goodness-of-fit assessments, plasma and urine data analyses were finalized using Nonlinear Mixed-Effect (MLME) modeling for population fit with S-Plus for Windows (version 8, Insightful Corp. Seattle, WA) to estimate the parameters account for inter-subject variabilities.
A Michealis-Menten equation (equation 4) was selected and fitted to data to estimate the parameters Vm and KM (maximum rate and Michaelis constant, respectively).
Initial estimate of Vm and KM were obtained by inspecting data plots. Goodness-of-fit was checked by visually inspecting the distribution of Standardized Residuals. If the goodness of fit was not acceptable, the initial parameters (Vm and KM) were changed and the resulting plot inspected again for distribution of residuals. […]

O=C1O[C@H]([C@@H](O)CO)C(O)=C1O [vitamin C]
Median FeVC ([1]; Diabetic Cohort, All Subjects): 0.00032 | Median FeVC ([1]; Diabetic Cohort, Plasma Vit C < MET): 0.00015 | Median FeVC ([1]; Diabetic Cohort, Plasma Vit C ≥ MET): 0.0012 and 0.00122 | Plasma Vitamin C Concentration (mean) ([1]; Diabetic Cohort, table part adjusted for sex/gender): 40.9 µM | Plasma Vitamin C Concentration (mean) ([1]; Diabetic Cohort, un-adjusted for sex/gender): 40.9 µM | Median FeVC ([1]; Healthy Subgroup, All Subjects): 0.00046 | Median FeVC ([1]; Healthy Subgroup, Plasma Vit C < MET): 0 | Median FeVC ([1]; Healthy Subgroup, Plasma Vit C ≥ MET): 0.00046 | Plasma Vitamin C Concentration (mean) ([1]; Healthy Subgroup, table part adjusted for sex/gender): 57.1 µM | Plasma Vitamin C Concentration (mean) ([1]; Healthy Subgroup, un-adjusted for sex/gender): 57.1 µM | Median FeVC ([1]; Non-Diabetic Control, All Subjects): 0.00044 | Median FeVC ([1]; Non-Diabetic Control, Plasma Vit C < MET): 0.0000 | Median FeVC ([1]; Non-Diabetic Control, Plasma Vit C ≥ MET): 0.0010 | Plasma Vitamin C Concentration (mean) ([1]; Non-Diabetic Control, table part adjusted for sex/gender): 53.1 µM | Plasma Vitamin C Concentration (mean) ([1]; Non-Diabetic Control, un-adjusted for sex/gender): 53.1 µM | plasma vitamin C concentration below which no vitamin C was found in urine (renal threshold) [2]: 55 µM | mean plasma vitamin C concentration ([3]; Fabry cohort and healthy controls after 3-week low vitamin C diet, order of cohorts not stated): 38.9 µM and 36.5 µM | median fractional excretion of vitamin C (FeVC) ([3]; healthy male controls): 0 | median fractional excretion of vitamin C (FeVC) ([3]; men with Fabry disease): 0.018 | Minimal Elimination Threshold (MET), 2SD below mean renal threshold using PBPK ([4]; healthy men): 38.1 µM | vitamin C renal threshold, Pharmacokinetic Modeling (PBPK), individual estimates ([4]; healthy men, individual subjects M1-M7, plasma concentration at which vitamin C first appears in urine): 52 μM and 51 μM and 40 μM and 56 μM and 45 μM (2×) and 50 μM | vitamin C renal threshold, PBPK, Mean (SD) ([4]; healthy men, n = 7): 48.5(5.2) μM | vitamin C renal threshold, PBPK, Mean (SD) ([4]; healthy men, n = 7, listed as Vitamin C): 48.5 μM and 48.5 (5.2) μM | vitamin C renal threshold, Population Curve Fitting (PCF) ([4]; healthy men): 48.3 µM and 48.28 µM | vitamin C renal threshold, Population Curve Fitting (PCF) ([4]; healthy men, listed as Vitamin C): 48.3 µM | Minimal Elimination Threshold (MET), 2SD below mean renal threshold using PBPK ([4]; healthy women): 43.2 µM | vitamin C renal threshold, Pharmacokinetic Modeling (PBPK), individual estimates ([4]; healthy women, individual subjects W1-W10): 54 μM (3×) and 67 μM and 57 μM and 64 μM and 63 μM and 45 μM and 70 μM and 55 μM | vitamin C renal threshold, PBPK, Mean (SD) ([4]; healthy women, n = 10): 58.3(7.5) μM | vitamin C renal threshold, PBPK, Mean (SD) ([4]; healthy women, n = 10, listed as Vitamin C): 58.3 μM and 58.3 (7.5) μM | vitamin C renal threshold, Population Curve Fitting (PCF) ([4]; healthy women): 60.4 µM and 60.39 µM | vitamin C renal threshold, Population Curve Fitting (PCF) ([4]; healthy women, listed as Vitamin C): 60.4 µM
